For this experiment, the system named is Haemonchus contortus L3. The experiment can be described thus: Haemonchus contortus L3 (HcL3) in vitro test. Format: cell-based. The settings on record: minimum effective dose, exsheathed L3 larvae, 37° C., observed 2 hrs to 4 days, dose responses 100-0.1 μg/ml, n=2, read-out: H.c. (L3) MED. The protocol: The Haemonchus contortus L3 (HcL3) test is used to measure the biological activities of the compounds claimed. The assay involves in vitro testing against H. contortus conducted according to the following general procedure.
HcL3 larvae were collected from infected sheep and, after cleaning, stored in water at 12° C. for up to one month. Viable infective larvae were exsheathed using 10% hypochlorite in Glucose Tyrodes balanced salt solution containing antibiotics and resuspended in basal medium (20 g/l bacto-tryptone, 5 g/l yeast extract, 57 g/l glucose, 0.8 g/l di-Potassium hydrogen orthophosphate, 0.8 g/l potassium dihydrogen orthophosphate and […] Hepes with antibiotics). 95 μl worm suspension was added to each well of a 96 well plate.
Test compounds were dissolved in dimethylsulfoxide to give a working stock solution of 20 mg/ml. The stock concentration was diluted 1:10 in Basal media to give 2.0 mg/ml (10% DMSO). 5 μl of the stock compound solution was added to the worm suspension to give a final concentration of 100 μg/ml. Plates were sealed with pressure sensitive film and incubated at 37° C. Observations were made 2 hrs, 24 hrs, 48 hrs, 72 hrs and 4 days post-treatment using an inverted microscope. Activity was recorded if a significant proportion of the worms were dead or adversely affected by the compound when compared to the control well containing 1% DMSO. Compounds were initially tested at 100 μg/ml, wherefrom relevant dose responses (100, 30, 10, 3, 1, 0.3, 0.1 μg/ml) were conducted in duplicate experiments to generate n=2. Data was recorded as minimum effective dose.

Molecules are shown by their SMILES.

Take `CC(C#N)(NC(=O)c1ccc(C(F)(F)F)cc1)C1Cc2cc(Cl)ccc2O1` (centres unmarked) [Example 5, N-[1-(5-Chloro-2,3-dihydro-1-benzofuran-2-yl)-1-cyanoethyl]-4-(trifluoromethyl)benzamide]: the minimal effective concentration was determined as 30 µg/mL. As to `CC(C#N)(NC(=O)c1ccc(OC(F)(F)F)cc1)C1Cc2cc(C#N)cc(Cl)c2O1` (centres unmarked) [Example 8, N-[1-(7-Chloro-5-cyano-2,3-dihydro-1-benzofuran-2-yl)-1-cyanoethyl]-4-(trifluoromethoxy)benzamide], the minimal effective concentration is under 1 µg/mL. As for `CC(C#N)(NC(=O)c1ccc(SC(F)(F)F)cc1)C1Cc2cccc(C#N)c2O1` (centres unmarked) [Example 7, N-[1-Cyano-1-(7-cyano-2,3-dihydro-1-benzofuran-2-yl)ethyl]-4-[(trifluoromethyl)thio]benzamide], the figure is 10 µg/mL. As for `CC(C#N)(NC(=O)c1ccc(S(F)(F)(F)(F)F)cc1)C1Cc2cc(C#N)cc(Cl)c2O1` (centres unmarked) [Example 9, N-[1-(7-Chloro-5-cyano-2,3-dihydro-1-benzofuran-2-yl)-1-cyanoethyl]-4-(pentafluorothio)benzamide], the figure is under 1 µg/mL; as for `CC(C#N)(NC(=O)c1ccc(OC(F)(F)F)cc1)C1Cc2cccc(C#N)c2O1` (centres unmarked) [Example 6, N-[1-Cyano-1-(7-cyano-2,3-dihydro-1-benzofuran-2-yl)ethyl]-4-(trifluoromethoxy)benzamide], 10 µg/mL; as for `CC(C#N)(NC(=O)c1ccc(OC(F)(F)F)cc1)C1Cc2cc(C#N)ccc2O1` (centres unmarked) [Example 1a, N-[1-Cyano-1-(5-cyano-2,3-dihydro-1-benzofuran-2-yl)ethyl]-4-(trifluoromethoxy)benzamide], 3 µg/mL. As for `CC(C#N)(NC(=O)c1ccc(OC(F)(F)F)cc1)C1Cc2ccccc2O1` (centres unmarked) [Example 3, N-[1-Cyano-1-(2,3-dihydro-1-benzofuran-2-yl)ethyl]-4-(trifluoromethoxy)benzamide], the minimal effective concentration stood at 30 µg/mL. Turning to `CC(C#N)(NC(=O)c1ccc(SC(F)(F)F)cc1)C1Cc2cc(C#N)ccc2O1` (centres unmarked) [Example 2, N-[1-Cyano-1-(5-cyano-2,3-dihydro-1-benzofuran-2-yl)ethyl]-4-[(trifluoromethyl)thio]benzamide], the minimal effective concentration came to 3 µg/mL.

(Values after patent US7622500B2, “Antiparasitic agents” (Pfizer Limited, priority 2007, dated 2009).)
